Reference: patent US20210260057A1, “COMPOSITIONS AND METHODS TARGETING GLUTAMINE AND ITS METABOLISM FOR DIAGNOSING AND TREATING CANCER AND THERAPY-ASSOCIATED SIDE EFFECTS” (CEDARS-SINAI MEDICAL CENTER, priority 2018, published 2021)
“And” between values parts separate entries of the source, which are not always exact repeats. Identical values can stand only once.

Legend:
CWR22Rv1 with CAF = experiment: 3D co-cultures of CAF-CWR22Rv1, neuroendocrine gene panel rtPCR; assay type: cell-based, human; conditions: in the context of enzalutamide, 3 days, glutamine free media, well below control levels, F test P<0.0001
Experimental: (§1) 3D organotypic co-culture. A modified version of the 3D organotypic co-culture system was performed in a collagen matrix similar to that previously reported (Stark H J, Baur M, Breitkreutz D, Mirancea N, and Fusenig N E. Organotypic keratinocyte cocultures in defined medium with regular epidermal morphogenesis and differentiation. J Invest Dermatol. 1999; 112(5):681-91). Matrix were prepared by mixing five volumes of rat tail collagen with two volumes of matrigel in one volume of 10×DMEM medium (GE Healthcare Life Sciences), and one volume of FBS (Atlanta Biologicals). CWR22Rv1 and primary mouse prostatic fibroblasts (WT or RAS^V12) were combined in a 1:3 ratio in the matrix. Nylon squares were coated with collagen and placed on metal grids in a 6-well plate. Matrix plugs containing cells, formed in 96 well plates (150 μl), were transferred onto the nylon squares and media was added to the level of the nylon mesh. Following treatments, the cells were dissociated from the matrix with collagenase and dispase for FACS analysis.
(§2) RNA expression level. All real-time PCR assays were carried out using three technical replicates and three independent cDNA syntheses on a 7500 Real-Time PCR System (Applied Biosystems). Data were normalized using an internal control gene, either GAPDH or β-actin. Relative quantification of expression levels (RQ) was calculated using the ^2-ΔΔCt method.

[1] = test system: CWR22Rv1 and CAF tissue recombinants; experiment: Sub-renal capsule tissue recombinant xenograft, intact mice; assay type: in vivo, mouse; conditions: GPNA vs control
Description: (§3) Tissue recombination mouse models.

CWR22Rv1 cells [2] = experiment: 3D organotypic co-culture, epithelial proliferation by FACS (EpCAM+/Ki67+); assay type: cell-based, human; conditions: 3D co-cultures of fibroblasts and CWR22Rv1; P<0.05 (GPNA), P<0.001 (BPTES)
Experimental: as §1

C4-2B cells = experiment: Seahorse XF-24 metabolic flux analysis, C4-2B; assay type: cell-based, human; conditions: C4-2B in Ras^V12 fibroblast-CM; GPNA 10 μM
Experimental: (§4) Seahorse XF-24 metabolic flux analysis. Oxygen consumption rate (OCR, pmol min-1) was measured with the Searhorse Bioscience XF24 extracellular flux analyzer. Cells were incubated in a CO2-free incubator for 1 h at 37° C. to allow for temperature and pH equilibration prior to loading into the XF24 apparatus. Initial assays were performed to optimize cell number, FCCP concentration and oligomycin concentration (data not shown). We used L-Glutamic acid γ-(p-nitroanilide) hydrochloride (GPNA, 10 μM), a specific glutamine […] inhibitor.

CWR22Rv1 cells [3] = experiment: Seahorse XF-24 metabolic flux analysis, CWR22Rv1; assay type: cell-based, human; conditions: CWR22Rv1 in Ras^V12 fibroblast-CM; GPNA 10 μM
Experimental: as §4

[4] = test system: CWR22Rv1 and CAF tissue recombinants; experiment: Castrate resistant sub-renal capsule xenograft (castration + enzalutamide)
Experimental: Tissue recombination mouse models. Cell recombinants were prepared by mixing 2×10^5 epithelial (CWR22Rv1) cells with 6×10^5 CAFs or stromal cells expressing KRAS^V12 per site in collagen as described before (Banerj ee J, Mishra R, Li X, Jackson R S, 2nd, Sharma A, and Bhowmick N A. A reciprocal role of prostate cancer on stromal DNA damage. Oncogene. 2014; 33(41):4924-31). The mice were either left intact or castrated 1 week after grafting. […] Castrated mice were treated with enzalutamide (5 mg/kg) either alone or in combination with L-glutamic acid Υ-(p-nitroanilide) hydrochloride (GPNA; 10 mg/kg; Sigma-Aldrich) for three weeks. The tumor volumes were measured using digital calipers and calculated using the following formula: length (mm)×width (mm)×width (mm)×0.52. When the mice were sacrificed and tumors were excised and photographed. Formalin-fixed, paraffin-embedded (FFPE) xenograft tumor tissue was sectioned and stained with hematoxylin and eosin (H&E) and staining for chromogranin A, TUNEL, phosphorylated-hi stone H3 and phosphorylated-mTOR.

primary CAF = experiment: Macropinocytosis assay (TMR-dextran uptake); assay type: cell-based, human; conditions: EIPA 25 μM, 5-Aza DC 5 μM (FIG. 9A)
Experimental: Macropinocytosis assay. These were performed as described previously (Commisso C, Davidson S M, Soydaner-Azeloglu R G, Parker S J, Kamphorst J J, Hackett S, Grabocka E, Nofal M, Drebin J A, Thompson C B, et al. Macropinocytosis of protein is an amino acid supply route in Ras-transformed cells. Nature. 2013; 497(7451):633-7), briefly fibroblasts which were grown on cover slips, serum-starved for 18 hours. TMR-dextran (1 mg/ml; 70 kDa, […]), which is an established marker of macropinocytosis, was added to serum-free medium for 30 min at 37° C. for macropinosomes labeling (Commisso C, Davidson S M, Soydaner-Azeloglu R G, Parker S J, Kamphorst J J, Hackett S, Grabocka E, Nofal M, Drebin J A, Thompson C B, et al. Macropinocytosis of protein is an amino acid supply route in Ras-transformed cells. Nature. 2013; 497(7451):633-7). […] Images were captured using laser confocal scanning microscopy (Leica) and analyzed via LASX software. […] The fluorescence signals in the cells were imaged using FSX100 (Olympus, USA). To determine whether the internalized albumin is intracellularly degraded, we have utilized a self-quenching red fluorescent dye, where lysosomal proteases enable red fluorescence visualization. Cells were incubated in RPMI media containing DQ-BSA (10 μg/ml) for 30 min and washed twice with PBS and monitored by confocal microscopy.

[5] = test system: Rasa13-KO mouse prostatic fibroblasts; experiment: MTT viability assay, Rasa13-KO fibroblasts; assay type: cell-based; conditions: 72 hrs incubation with EIPA, P<0.001
Experimental: (§5) (FIG. 10A) The viability of CWR22Rv1 and mouse prostatic fibroblasts (Cas9 control and Rasa13-KO) was measured by MTT assay following 72 hrs incubation with macropinocytotic inhibitor, EIPA. The bar graphs represent the absorbance of the MTT formazan determined at 570 nm from a single experiment representative of a total 3 independent experiments, each performed in quadruplicate. Statistical significance was determined by one-way ANOVA. (FIG. 10B) Quantitation of EpCAM-positive epithelial cells were achieved by FACS of 3D co-cultures of human C4-2B epithelia and wild type (WT) or Ras^V12 mouse fibroblasts. Statistical significance was determined by unpaired t test. (FIG. 10C) Stromal fibroblasts (Cas9 or Rasa13-KO) cultured with CWR22Rv1 epithelia using a standard transwell apparatus. […] Epithelial and stromal cells grown in glutamine free either DMEMF12 or RPMI media. are expressed as mean±SEM of 3 independent experiments. Statistical significance was determined by two-tailed student's t test. **P<0.01, ****P<0.0001.

[6] = test system: CWR22Rv1 and Ras^V12 mouse fibroblast tissue recombinants; experiment: Orthotopic tissue recombinant xenograft, EIPA treatment; assay type: in vivo; conditions: SCID mice, anterior prostate grafts; EIPA for 1 week from two weeks after grafting, vs vehicle control; P<0.01 (FIG. 2H)
Description: as §3
To directly determine if Ras signaling confers a tumor supportive role associated with CAF, we used CRISPR/Cas9 to knock out Rasa13 in mouse prostatic fibroblasts. Compared to the expression of Cas9 fibroblasts (control), Ras activity and ERK phosphorylation was elevated in Rasa13-knockout (Rasa13-KO) fibroblasts (FIG. 2D). Rasa13-KO fibroblasts took up TMR dextran, whereas it was undetectable in the control fibroblasts (FIG. 2E). The exogenous expression of active Ras^V12 (Gly^12→Val^12) in wild-type mouse prostatic fibroblasts replicated the downstream ERK activation and macropinocytosis observed in CAF and Rasa13-KO cells (FIG. 2 F,G). Thus, epigenetic RASAL3 silencing of prostatic fibroblasts promoted familiar signaling and macropinocytosis associated with Ras transformation (Commisso et al., 2013). […] To test the role of stromal Ras-mediated macropinocytosis on tumor development, orthotopic PCa xenograft models were used. Tissue recombinants of Ras^V12-expressing fibroblasts and CWR22Rv1 epithelia were grafted into the anterior prostates of SCID mice. Two weeks later, mice were treated with vehicle control or EIPA for 1 week to suppress macropinocytosis (FIG. 2H). […] Thus, glutamine uptake by the tumor was necessary for its expansion.

CWR22Rv1 = experiment: MTT viability assay, CWR22Rv1; assay type: cell-based, human; conditions: CWR22Rv1, 72 hrs incubation with EIPA
Experimental: as §5

[7] = test system: mouse prostatic fibroblasts (Cas9 control); experiment: MTT viability assay, control (Cas9 / wild type) fibroblasts; assay type: cell-based; conditions: 72 hrs incubation with EIPA
Experimental: as §5

[8] = test system: prostate cancer (serum PSA); experiment: PSA response of PCa patients on androgen targeted therapy; assay type: in vivo, human; parameters: PSA on treatment: unit not given beside the values; conditions: for PSA on treatment: individual PCa patient on the listed Rx
Description: Plasma glutamine level may be prognostic for ADT sensitivity. Considering the striking finding that glutamine can induce ADT resistance, we tested if glutamine concentrations can be associated with ADT sensitivity in prostate cancer patients. We measured blood plasma glutamine concentrations in 28 PCa patients that received ADT (Table 1). Of note, the specific androgen signaling-axis interventions in the patient pool included, androgen receptor antagonists: bicalutamide, enzalutamide, and apalutamide, as well as androgen synthesis inhibitors: leuprolide, goserelin, triptorelin, and abiraterone.

[9] = test system: prostate cancer epithelial cells; experiment: ALDH (stem marker) in prostate cancer epithelial cells; assay type: cell-based
[10] = test system: human prostate cancer cells (CWR22Rv1); experiment: Gene expression in prostate cancer cells (FIG. 15A-D); assay type: cell-based; conditions: FIG. 15D
PD1 and CD47 on CWR22Rv1 = experiment: FACS of immune checkpoint proteins in prostate cancer/fibroblast co-culture; assay type: cell-based, human; conditions: CWR22Rv1 co-cultured with wild type or CD105-knockout fibroblasts
RASAL3 mRNA in CAF = experiment: RASAL3 mRNA expression (rtPCR) in CAF; assay type: cell-based, human; conditions: 5-day treatment; Bic 10^−5 M, Enza 10^−5 M, R1881 10^−9 M, 5-Aza 5 mmol/L
Experimental: as §2

RASAL3 promoter = experiment: Methylation specific PCR of RASAL3 exon 2 in CAF; assay type: cell-based, human; conditions: CAF after treatment
Experimental: (FIG. 13A) Quantitative rtPCR analysis of RASAL3 in NAF and CAF was performed following 5 day treatment with bicalutamide (Bic, 10^−5 M), enzalutamide (Enza, 10^−5 M), R1881 (10^−9 M), or 5-Azacytidine (5-Aza, […]). RASAL3 expression was normalized GAPDH expression. Data represent the mean±SEM. *P<0.05, ***P<0.001, and ****P<0.0001, by two-way ANOVA followed by multiple comparison. Results are the average of at least three independent experiments. (FIG. 13B) MS-PCR of the RASAL3 exon 2 methylation status in CAF after treatment with enzalutamide, R1881, 5-Azacytidine and bicalutamide was performed. The PCR products in the lanes marked “U” indicate unmethylated templates for RASAL3 gene, whereas the products in the lanes marked “M” indicate methylated templates. Data are representative of three independent experiments.

[11] = castrated, enzalutamide treated mice, addition of GPNA

SMILES: N[C@@H](CCC(=O)Nc1ccc([N+](=O)[O-])cc1)C(=O)O [GPNA, L-gamma-glutamyl-p-nitroanilide]
- mRNA expression of the panel of neuroendocrine biomarker genes (CWR22Rv1 with CAF): significantly reduced
- mitotic index (phosphorylated-histone H3) ([1]; P<0.0001): reduced
- tumor volume ([1]; P<0.001): reduced tumor volume
- epithelial proliferation (Ki-67 staining of EpCAM+ cells, FACS) (CWR22Rv1 cells [2]): significantly decreased epithelial proliferation
- basal respiration, ATP, and maximal respiration (OCR) (C4-2B cells): restored basal respiration, ATP, and maximal respiration to that observed with wild type fibroblast-CM
- basal respiration, ATP, and maximal respiration (OCR) (CWR22Rv1 cells [3]): restored basal respiration, ATP, and maximal respiration to that observed with wild type fibroblast-CM
- cell death (TUNEL) ([4]; GPNA + ADT vs ADT alone, P<0.001): elevated
- localization of phosphorylated-mTOR (Ser-2481) ([4]; GPNA + ADT vs ADT alone, P<0.05): reduced
- mitotic index (phosphorylated histone H3) ([4]; GPNA + ADT vs androgen signaling blockage alone): did not significantly change
- tumor size ([4]; castrated mice, enzalutamide 5 mg/kg + GPNA 10 mg/kg for three weeks vs ADT alone, P<0.0001): significantly reduced tumor size
- chromogranin A expression induced by castration and enzalutamide [4, 11]: reduced chromogranin A expression
- histology (H&E) [4, 11]: associated with karyolytic cells

SMILES: CCN(c1nc(N)c(C(=O)N=C(N)N)nc1Cl)C(C)C [EIPA, 5-(N-ethyl-N-isopropyl) amiloride]
- TMR-dextran uptake by CAF (macropinocytosis) (primary CAF): inhibited
- viability (MTT) [5]: reduced the viability
- tumor size [6]: dramatically reduced tumor size
- viability (MTT) (CWR22Rv1): no significant effect
- viability (MTT) [7]: no significant effect

SMILES: CCNC(=O)[C@@H]1CCCN1C(=O)[C@H](CCCNC(=N)N)NC(=O)[C@H](CC(C)C)NC(=O)[C@@H](CC(C)C)NC(=O)[C@H](Cc1ccc(O)cc1)NC(=O)[C@H](CO)NC(=O)[C@H](Cc1c[nH]c2ccccc12)NC(=O)[C@H](Cc1c[nH]cn1)NC(=O)[C@@H]1CCC(=O)N1 [L, Leuprolide]
- PSA on treatment [8]: <0.1 and 7.8 and 0.1 and 1.1 and 1.2 and 0.2
- Outcome ([8]; individual PCa patient, responsiveness to ADT based on serum PSA): Responsive (4×) and Non- (2×)

SMILES: O=C(Cc1ccccc1)Nc1nnc(CCSCCc2nnc(NC(=O)Cc3ccccc3)s2)s1 [BPTES, bis-2(5-phenylacetamido-1,3,4-thiadiazol-2-yl)ethyl sulfide]
- mRNA expression of the panel of neuroendocrine biomarker genes (CWR22Rv1 with CAF): significantly reduced
- enzalutamide-upregulated ALDH ([9]; epithelial culture without stromal fibroblasts (FIG. 17B)): can be limited
- enzalutamide-induced TET2 expression [10]: downregulates
- epithelial proliferation (Ki-67 staining of EpCAM+ cells, FACS) (CWR22Rv1 cells [2]): significantly decreased epithelial proliferation
- CD47 expression (FACS) (PD1 and CD47 on CWR22Rv1): downregulated
- PD1 expression (FACS) (PD1 and CD47 on CWR22Rv1): downregulated

SMILES: Nc1ncn([C@H]2C[C@H](O)[C@@H](CO)O2)c(=O)n1 [5-aza-2′-deoxycytidine]
- TMR-dextran uptake by CAF (macropinocytosis) (primary CAF): inhibited
- RASAL3 mRNA expression in CAF (RASAL3 mRNA in CAF): restored
- methylation of the RASAL3 promoter (methylation specific PCR) (RASAL3 promoter): hypomethylation

SMILES: C[C@]12CC[C@H](O)CC1=CC[C@@H]1[C@@H]2CC[C@]2(C)C(c3cccnc3)=CC[C@@H]12 [A, Abiraterone]
- PSA on treatment [8]: 26.2 and 6.4

SMILES: N[C@@H](CCC(=O)O)C(=O)O [glutamate]
- ALDH (stem marker) ([9]; prostate cancer epithelial cells (FIG. 17A, 17B)): upregulates ALDH further

SMILES: CC(O)(CS(=O)(=O)c1ccc(F)cc1)C(=O)Nc1ccc(C#N)c(C(F)(F)F)c1 (stereo not shown) [bicalutamide]
- PSA on treatment [8]: 11.3
